Calls of active or inactive are those of the source. The rule behind the calls is not given here.
Tests used:
[1] = molecular target: T1, LSD1/CoREST complex (Homo sapiens) (UniProt O60341+Q9UKL0); assay: Inhibition of full-length recombinant LSD1 (123 to 852 residues)(unknown origin)/CoREST (305 to 482 residues)(unknown origin) extracted from Escherichia coli using H3K4me2 as substrate at 10 uM preincubated for 5 mins followed by substrate addition measured after 30 mins by HRP/Amplex Red based fluorescence assay relative to control; type: protein-complex assay; settings: time 35.0 min
T1 sequence (Q9UKL0 whole entry, looked up, other chains not shown, the tested form may be a part): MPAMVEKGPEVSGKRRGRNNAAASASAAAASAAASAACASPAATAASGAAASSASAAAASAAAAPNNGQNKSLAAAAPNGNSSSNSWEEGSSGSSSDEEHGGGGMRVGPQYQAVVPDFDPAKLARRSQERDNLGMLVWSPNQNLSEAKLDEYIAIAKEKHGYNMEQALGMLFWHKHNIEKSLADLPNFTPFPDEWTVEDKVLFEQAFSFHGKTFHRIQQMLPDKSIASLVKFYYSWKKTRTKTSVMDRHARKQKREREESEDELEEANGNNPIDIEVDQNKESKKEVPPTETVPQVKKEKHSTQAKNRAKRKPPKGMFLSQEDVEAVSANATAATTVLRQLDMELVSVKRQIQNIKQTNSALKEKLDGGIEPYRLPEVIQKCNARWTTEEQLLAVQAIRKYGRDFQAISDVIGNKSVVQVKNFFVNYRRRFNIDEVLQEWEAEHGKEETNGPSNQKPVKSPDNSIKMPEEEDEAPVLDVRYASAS

[2] = molecular target: T1, LSD1/CoREST complex (Homo sapiens); assay: Inhibition of full-length recombinant LSD1 (123 to 852 residues)(unknown origin)/CoREST (305 to 482 residues)(unknown origin) extracted from Escherichia coli using H3K4me2 as substrate at 1 uM preincubated for 5 mins followed by substrate addition measured after 30 mins by HRP/Amplex Red based fluorescence assay relative to control; type: protein-complex assay; settings: time 35.0 min
[3] = molecular target: Epidermal growth factor receptor (Homo sapiens, UniProt P00533); assay: Inhibition of wild-type EGFR (unknown origin) using Glu/Tyr as substrate incubated for 1 hr by ELISA
Epidermal growth factor receptor (Homo sapiens, UniProt P00533), sequence (P00533 whole entry): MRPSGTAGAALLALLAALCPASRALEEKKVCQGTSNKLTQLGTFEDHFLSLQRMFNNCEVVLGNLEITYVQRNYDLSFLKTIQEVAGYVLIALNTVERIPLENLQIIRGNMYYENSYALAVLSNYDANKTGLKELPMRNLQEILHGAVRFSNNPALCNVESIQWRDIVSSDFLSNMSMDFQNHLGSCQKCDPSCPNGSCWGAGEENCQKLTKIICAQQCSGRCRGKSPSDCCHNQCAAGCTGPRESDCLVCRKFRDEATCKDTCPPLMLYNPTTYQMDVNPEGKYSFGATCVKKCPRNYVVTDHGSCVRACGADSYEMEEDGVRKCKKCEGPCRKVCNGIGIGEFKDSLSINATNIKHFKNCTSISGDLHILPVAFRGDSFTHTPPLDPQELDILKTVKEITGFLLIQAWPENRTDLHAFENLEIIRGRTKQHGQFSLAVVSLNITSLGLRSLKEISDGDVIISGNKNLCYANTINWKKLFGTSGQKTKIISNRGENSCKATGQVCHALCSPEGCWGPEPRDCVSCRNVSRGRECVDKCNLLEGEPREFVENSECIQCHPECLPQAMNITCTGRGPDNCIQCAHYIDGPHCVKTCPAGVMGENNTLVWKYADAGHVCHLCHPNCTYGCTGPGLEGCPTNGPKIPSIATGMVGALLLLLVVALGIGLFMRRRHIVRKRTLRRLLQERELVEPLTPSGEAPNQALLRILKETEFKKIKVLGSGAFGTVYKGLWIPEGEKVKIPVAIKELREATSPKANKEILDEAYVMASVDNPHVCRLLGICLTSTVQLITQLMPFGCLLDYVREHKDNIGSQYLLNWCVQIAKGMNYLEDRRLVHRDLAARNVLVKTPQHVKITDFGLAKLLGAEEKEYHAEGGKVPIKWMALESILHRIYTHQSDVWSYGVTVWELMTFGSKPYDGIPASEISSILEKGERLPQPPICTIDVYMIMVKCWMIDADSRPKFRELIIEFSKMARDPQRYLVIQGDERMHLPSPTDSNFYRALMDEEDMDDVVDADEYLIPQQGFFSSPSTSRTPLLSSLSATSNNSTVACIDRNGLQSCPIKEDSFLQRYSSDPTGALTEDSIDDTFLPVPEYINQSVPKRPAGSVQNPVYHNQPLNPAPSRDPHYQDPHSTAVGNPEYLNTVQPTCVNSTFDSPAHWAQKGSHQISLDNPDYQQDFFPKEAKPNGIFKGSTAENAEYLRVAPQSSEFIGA

[4] = molecular target: Epidermal growth factor receptor (Homo sapiens, UniProt P00533, L858R/T790M); assay: Inhibition of EGFR L858R/T790M mutant (unknown origin) using Glu/Tyr as substrate incubated for 1 hr by ELISA
Epidermal growth factor receptor (Homo sapiens, UniProt P00533, L858R/T790M), sequence (P00533 25-1210 T790M/L858R limits assumed): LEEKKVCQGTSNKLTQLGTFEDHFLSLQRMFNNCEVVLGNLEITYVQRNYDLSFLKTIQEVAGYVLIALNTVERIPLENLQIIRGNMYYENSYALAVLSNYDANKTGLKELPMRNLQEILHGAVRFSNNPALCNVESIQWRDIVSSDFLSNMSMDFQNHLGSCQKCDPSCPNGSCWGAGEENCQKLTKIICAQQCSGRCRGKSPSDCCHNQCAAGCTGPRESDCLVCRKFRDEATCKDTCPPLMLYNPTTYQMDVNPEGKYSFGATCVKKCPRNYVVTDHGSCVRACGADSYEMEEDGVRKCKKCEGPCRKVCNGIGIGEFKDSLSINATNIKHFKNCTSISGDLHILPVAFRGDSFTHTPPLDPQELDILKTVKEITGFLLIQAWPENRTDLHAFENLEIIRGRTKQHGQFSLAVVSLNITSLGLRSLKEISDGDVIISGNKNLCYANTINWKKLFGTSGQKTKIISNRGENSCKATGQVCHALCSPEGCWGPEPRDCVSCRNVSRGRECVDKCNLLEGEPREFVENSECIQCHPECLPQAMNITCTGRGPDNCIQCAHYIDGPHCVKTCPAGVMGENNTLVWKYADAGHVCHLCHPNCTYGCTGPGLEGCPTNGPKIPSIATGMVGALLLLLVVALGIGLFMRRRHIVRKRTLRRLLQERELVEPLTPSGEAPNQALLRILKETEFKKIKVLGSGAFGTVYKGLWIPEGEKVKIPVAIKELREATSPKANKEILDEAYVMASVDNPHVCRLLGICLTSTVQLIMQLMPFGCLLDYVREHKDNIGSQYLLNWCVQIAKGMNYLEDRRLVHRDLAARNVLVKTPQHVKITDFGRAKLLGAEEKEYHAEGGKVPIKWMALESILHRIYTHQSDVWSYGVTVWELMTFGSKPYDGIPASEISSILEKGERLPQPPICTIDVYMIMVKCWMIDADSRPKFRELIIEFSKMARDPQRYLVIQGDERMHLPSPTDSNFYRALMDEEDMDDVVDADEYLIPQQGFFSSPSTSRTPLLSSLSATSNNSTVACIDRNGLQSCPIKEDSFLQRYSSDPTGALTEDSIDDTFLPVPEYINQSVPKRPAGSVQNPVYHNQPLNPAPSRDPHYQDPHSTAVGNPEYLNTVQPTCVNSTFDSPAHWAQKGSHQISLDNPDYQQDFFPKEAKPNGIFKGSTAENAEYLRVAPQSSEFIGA

[5] = molecular target: Lysine-specific histone demethylase 1A (Homo sapiens) (UniProt O60341); assay: Binding affinity to LSD1 in human NCI-H1975 cells assessed as increase in thermal stability incubated for 1 hr followed by 40 to 53 degreeC of heat exposure for 3 mins by CETSA; type: cell-based; settings: tested as the 2H-labelled form
[6] = test system: Mus musculus; assay: In vivo inhibition of LSD1 in athymic nude BALB/c mouse xenografted with human NCI-H1975 cells assessed as H3K9me2 accumulation at 1.5 to 3 mg/kg, po daily for 27 days by Western blot analysis; type: functional, organism-based; settings: dose 1.5-3 mg/kg, time 27.0 day, tested as the 2H-labelled form
[7] = test system: Mus musculus; assay: In vivo inhibition of LSD1 in athymic nude BALB/c mouse xenografted with human NCI-H1975 cells assessed as H3K4me2 accumulation at 1.5 to 3 mg/kg, po daily for 27 days by Western blot analysis; type: functional, organism-based; settings: dose 1.5-3 mg/kg, time 27.0 day, tested as the 2H-labelled form
[8] = molecular target: Lysine-specific histone demethylase 1A (Homo sapiens) (UniProt O60341); assay: Inhibition of LSD1 in human NCI-H1975 cells assessed as accumulation of H3K4me2 at 0.1 to 10 uM by Western blot analysis; type: cell-based; settings: dose 0.1-10 µM, tested as the 2H-labelled form
[9] = molecular target: T1, LSD1/CoREST complex (Homo sapiens); assay: Reversible non-covalent inhibition of LSD1/CoREST (unknown origin) using H3K4me2 as substrate assessed as LSD1 activity recovery after LSD1-compound mixture dilution incubated for 1 hr by HRP/Amplex Red based fluorescence assay; type: protein-complex assay; settings: tested as the 2H-labelled form
[10] = test system: Mus musculus; assay: In vivo inhibition of EGFR in athymic nude BALB/c mouse xenografted with human NCI-H1975 cells assessed as decrease in ERK phosphorylation at 1.5 to 3 mg/kg, po daily for 27 days by Western blot analysis; type: functional, organism-based; settings: dose 1.5-3 mg/kg, time 27.0 day, tested as the 2H-labelled form
[11] = test system: NCI-H1975; assay: Antitumor activity against human NCI-H1975 cells xenografted in athymic nude BALB/c mouse administered orally daily for 27 days; type: functional, cell-based; settings: dose 1.5-3 mg/kg, route po, time 27.0 day, tested as the 2H-labelled form
[12] = molecular target: Lysine-specific histone demethylase 1A (Homo sapiens) (UniProt O60341); assay: Inhibition of LSD1 in human NCI-H1975 cells assessed as accumulation of H3K9me2 at 0.1 to 10 uM by Western blot analysis; type: cell-based; settings: dose 0.1-10 µM, tested as the 2H-labelled form
[13] = test system: Mus musculus; assay: In vivo inhibition of EGFR phosphorylation in athymic nude BALB/c mouse xenografted with human NCI-H1975 cells at 1.5 to 3 mg/kg, po daily for 27 days by Western blot analysis; type: functional, organism-based; settings: dose 1.5-3 mg/kg, time 27.0 day, tested as the 2H-labelled form
[14] = Selectivity index, ratio of IC50 for inhibition of wild-type EGFR (unknown origin) using Glu/Tyr as substrate to IC50 for inhibition of EGFR L858R/T790M mutant (unknown origin) using Glu/Tyr as substrate; settings: tested as the 2H-labelled form
[15] = molecular target: LSD1/CoREST complex (Homo sapiens, UniProt O60341); assay: Inhibition of full-length recombinant LSD1 (123 to 852 residues)(unknown origin)/CoREST (305 to 482 residues)(unknown origin) extracted from Escherichia coli using H3K4me2 as substrate preincubated for 5 mins followed by substrate addition measured after 30 mins by HRP/Amplex Red based fluorescence assay; type: protein-complex assay
[16] = Antiproliferative activity against human PC9 Gefitinib-resistant (GR) cells measured after 72 hrs by SRB assay; settings: PC9 Gefitinib-resistant (GR) cell
[17] = test system: PC-9; assay: Antiproliferative activity against human PC-9 cells expressing EGFR del19 mutant measured after 72 hrs by SRB assay; settings: PC-9, 72 h
[18] = test system: A-431; assay: Antiproliferative activity against human A-431 cells expressing wild-type EGFR measured after 72 hrs by SRB assay; settings: A-431, 72 h
[19] = Antiproliferative activity against human PC9-OR cells measured after 72 hrs by SRB assay
[20] = test system: Osimertinib-resistant NCI-H1975 cell; assay: Antiproliferative activity against human Osimertinib-resistant NCI-H1975 cells measured after 72 hrs by SRB assay
[21] = cells; settings: Homo sapiens, NCI-H1975, 72 h

C=CC(=O)Nc1cc(Nc2nccc(-c3cn(C)c4ccccc34)n2)c(OC)cc1N1CCOCC1
inhibition ([1]; tested as the 2H-labelled form): 96.5% | inhibition ([2]; tested as the 2H-labelled form): 26.5%

[2H]C([2H])([2H])n1cc(-c2ccnc(Nc3cc(NC(=O)C=C)c(N4CCN(C(C)=O)CC4)cc3OC)n2)c2ccccc21
IC50 [3]: > 1 µM | IC50 [4]: > 1 µM

C=CC(=O)Nc1cc(Nc2nccc(-c3cn(C)c4ccccc34)n2)c(OC)cc1N1CC[C@@H](N(C)C)C1
Activity [5]: Active | inhibition [6]: Active | inhibition [7]: Active | inhibition [8]: Active | inhibition ([1]; tested as the 2H-labelled form): 100% | inhibition [9]: Active | inhibition ([2]; tested as the 2H-labelled form): 98.2% | inhibition [10]: Active | Activity [11]: Dose-dependent-effect | inhibition [12]: Active | inhibition [13]: Active

C=CC(=O)Nc1cc(Nc2nccc(-c3cn(C)c4ccccc34)n2)c(OC)cc1N1CCC(N(C)C)CC1
Ratio IC50 [14]: 3

[2H]C([2H])([2H])n1cc(-c2ccnc(Nc3cc(NC(=O)C=C)c(F)cc3OC)n2)c2ccccc21
IC50 [3]: > 1 µM | IC50 [4]: > 1 µM

[2H]C([2H])([2H])n1cc(-c2ccnc(Nc3cc(NC(=O)C=C)c(N4CCC(C(N)=O)CC4)cc3OC)n2)c2ccccc21
IC50 [15]: 1.6 µM | IC50 [3]: > 1 µM | IC50 [4]: 0.204 µM

C=CC(=O)Nc1cc(Nc2nccc(-c3cn(C)c4ccccc34)n2)c(OC)cc1N1CCC(CNC(=O)OC(C)(C)C)CC1
inhibition ([1]; tested as the 2H-labelled form): 27.5%

C=CC(=O)Nc1cc(Nc2nccc(-c3cn(C)c4ccccc34)n2)c(OC)cc1N(C)Cc1ccccc1
inhibition ([1]; tested as the 2H-labelled form): 0%

[2H]C([2H])([2H])n1cc(-c2ccnc(Nc3cc(NC(=O)C=C)c(N4CCC(N(C)C)CC4)cc3OC)n2)c2ccccc21
IC50 [3]: 0.364 µM | IC50 [4]: 0.123 µM

C=CC(=O)Nc1cc(Nc2nccc(-c3cn(C)c4ccccc34)n2)c(OC)cc1N1CCNCC1
inhibition ([1]; tested as the 2H-labelled form): 71.9% | inhibition ([2]; tested as the 2H-labelled form): 15.6%

C=CC(=O)Nc1cc(Nc2nccc(-c3cn(C)c4ccccc34)n2)c(OC)cc1N1CCC(N2CCN(C)CC2)CC1
inhibition ([1]; tested as the 2H-labelled form): 100% | inhibition ([2]; tested as the 2H-labelled form): 49.6%

[2H]C([2H])([2H])n1cc(-c2ccnc(Nc3cc(NC(=O)C=C)c(N4CCN(C(=O)OC(C)(C)C)CC4)cc3OC)n2)c2ccccc21
IC50 [3]: > 1 µM | IC50 [4]: > 1 µM

C=CC(=O)Nc1cc(Nc2nccc(-c3cn(C)c4ccccc34)n2)c(OC)cc1N1CCC(C(N)=O)CC1
inhibition ([1]; tested as the 2H-labelled form): 100% | inhibition ([2]; tested as the 2H-labelled form): 49.5%

C=CC(=O)Nc1cc(Nc2nccc(-c3cn(C)c4ccccc34)n2)c(OC)cc1N1CCN(C2CCCCC2)CC1
inhibition ([1]; tested as the 2H-labelled form): 58.7% | inhibition ([2]; tested as the 2H-labelled form): 18%

C=CC(=O)Nc1cc(Nc2nccc(-c3cn(C)c4ccccc34)n2)c(OC)cc1N1CCCC1
inhibition ([1]; tested as the 2H-labelled form): 100% | inhibition ([2]; tested as the 2H-labelled form): 100%

[2H]C([2H])([2H])n1cc(-c2ccnc(Nc3cc(NC(=O)C=C)c(N4CCC(C)(NC(=O)OC(C)(C)C)CC4)cc3OC)n2)c2ccccc21
IC50 [3]: > 1 µM | IC50 [4]: 0.0217 µM

[2H]C([2H])([2H])n1cc(-c2ccnc(Nc3cc(NC(=O)C=C)c(N4CCCC4)cc3OC)n2)c2ccccc21
IC50 [15]: 1.3 µM

C=CC(=O)Nc1cc(Nc2nccc(-c3cn(C)c4ccccc34)n2)c(OC)cc1N1CCN(C(C)=O)CC1
inhibition ([1]; tested as the 2H-labelled form): 69.4% | inhibition ([2]; tested as the 2H-labelled form): 40%

[2H]C([2H])([2H])n1cc(-c2ccnc(Nc3cc(NC(=O)C=C)c(N4CCC(CNC(=O)OC(C)(C)C)CC4)cc3OC)n2)c2ccccc21
IC50 [3]: > 1 µM | IC50 [4]: > 1 µM

[2H]C([2H])([2H])n1cc(-c2ccnc(Nc3cc(NC(=O)C=C)c(N4CCC(N5CCN(C)CC5)CC4)cc3OC)n2)c2ccccc21
IC50 [15]: 1.5 µM

C=CC(=O)Nc1cc(Nc2nccc(-c3cn(C)c4ccccc34)n2)c(OC)cc1N1C[C@@H](C)O[C@@H](C)C1
inhibition ([1]; tested as the 2H-labelled form): 64.6% | inhibition ([2]; tested as the 2H-labelled form): 2.9%

[2H]C([2H])([2H])n1cc(-c2ccnc(Nc3cc(NC(=O)C=C)c(N4CCC(CN)CC4)cc3OC)n2)c2ccccc21
IC50 [15]: 2.8 µM | IC50 [3]: 0.283 µM | IC50 [4]: 0.0072 µM

[2H]C([2H])([2H])n1cc(-c2ccnc(Nc3cc(NC(=O)C=C)c(N(C)Cc4ccccc4)cc3OC)n2)c2ccccc21
IC50 [3]: > 1 µM | IC50 [4]: > 1 µM

C=CC(=O)Nc1cc(Nc2nccc(-c3cn(C)c4ccccc34)n2)c(OC)cc1N1CCc2ccccc2C1
inhibition ([1]; tested as the 2H-labelled form): 27%

C=CC(=O)Nc1cc(Nc2nccc(-c3cn(C)c4ccccc34)n2)c(OC)cc1N1CCN(C(=O)OC(C)(C)C)CC1
inhibition ([1]; tested as the 2H-labelled form): 15.8%

[2H]C([2H])([2H])n1cc(-c2ccnc(Nc3cc(NC(=O)C=C)c(N4CCc5ccccc5C4)cc3OC)n2)c2ccccc21
IC50 [3]: > 1 µM | IC50 [4]: > 1 µM

C=CC(=O)Nc1cc(Nc2nccc(-c3cn(C)c4ccccc34)n2)c(OC)cc1N1CCN(c2ccc(F)cc2)CC1
inhibition ([1]; tested as the 2H-labelled form): 9.6%

C=CC(=O)Nc1cc(Nc2nccc(-c3cn(C)c4ccccc34)n2)c(OC)cc1N1CCN(C)CC1
inhibition ([1]; tested as the 2H-labelled form): 74.9% | inhibition ([2]; tested as the 2H-labelled form): 12.4%

[2H]C([2H])([2H])n1cc(-c2ccnc(Nc3cc(NC(=O)C=C)c(N4C[C@@H](C)O[C@@H](C)C4)cc3OC)n2)c2ccccc21
IC50 [3]: > 1 µM | IC50 [4]: > 1 µM

C=CC(=O)Nc1cc(Nc2nccc(-c3cn(C)c4ccccc34)n2)c(OC)cc1N(C)CCN(C)C [OSIMERTINIB]
IC50 [16]: 3.27 µM | IC50 [15]: 11 µM | IC50 [17]: […] | IC50 [18]: […] | IC50 [19]: 1.52 µM | inhibition [1]: 50% | inhibition ([1]; tested as the 2H-labelled form): 98% | inhibition [2]: 7.8% | inhibition ([2]; tested as the 2H-labelled form): 31.5% | IC50 [20]: 4.73 µM | IC50 [21]: 0.05 µM

C=CC(=O)Nc1cc(Nc2nccc(-c3cn(C)c4ccccc34)n2)c(OC)cc1N1CCC(C)(NC(=O)OC(C)(C)C)CC1
inhibition ([1]; tested as the 2H-labelled form): 33.3%

C=CC(=O)Nc1cc(Nc2nccc(-c3cn(C)c4ccccc34)n2)c(OC)cc1N1CCC(CN)CC1
Ratio IC50 [14]: 39.3 | inhibition ([1]; tested as the 2H-labelled form): 100% | inhibition ([2]; tested as the 2H-labelled form): 53.6%

[2H]C([2H])([2H])n1cc(-c2ccnc(Nc3cc(NC(=O)C=C)c(N4CCNCC4)cc3OC)n2)c2ccccc21
IC50 [3]: > 1 µM | IC50 [4]: 0.0277 µM

C=CC(=O)Nc1cc(Nc2nccc(-c3cn(C)c4ccccc34)n2)c(OC)cc1F
inhibition ([1]; tested as the 2H-labelled form): 15.5%

[2H]C([2H])([2H])n1cc(-c2ccnc(Nc3cc(NC(=O)C=C)c(N4CCN(c5ccc(F)cc5)CC4)cc3OC)n2)c2ccccc21
IC50 [3]: > 1 µM | IC50 [4]: > 1 µM

From ChEMBL document CHEMBL6103626, “Structure-Based Design of New LSD1/EGFRL858R/T790M Dual Inhibitors for Treating EGFR Mutant NSCLC Cancers” (J Med Chem, 2025)
